# From US20220168243A1 (priority 2020, published 2022)
# System: SARS-CoV-2
# Assay: not given
# Format: cell-based, SARS-CoV-2 (USA-WA1/2020)
# Conditions: not given
row,SMILES,% Inhibition at HIGHEST Non-toxic Concentration [%]
1,CCN(CCCc1ccccc1)CCCc1ccccc1 [Alverine],30
2,"CC(C)COCC(CN(Cc1ccccc1)c1ccccc1)N1CCCC1 (stereo not shown) [Bepridil, reference compound]",60
3,NC(=O)C(c1ccccc1)(c1ccccc1)[C@@H]1CCN(CCc2ccc3c(c2)CCO3)C1 [Darifenacin],45
4,"CNCCCN1c2ccccc2CCc2ccccc21 [Desipramine, reference compound]",60
5,Fc1ccc(C(c2ccc(F)cc2)N2CCN(C/C=C/c3ccccc3)CC2)cc1 [Flunarizine],80
6,Cc1ccc(NC(=O)c2ccc(CN3CCN(C)CC3)cc2)cc1Nc1nc(-c2cccnc2)cs1 [Masitinib],90
7,Cc1cn(-c2cc(NC(=O)c3ccc(C)c(Nc4nccc(-c5cccnc5)n4)c3)cc(C(F)(F)F)c2)cn1 [Nilotinib],60
8,OCCOc1ccc(/C(=C(/CCCl)c2ccccc2)c2ccccc2)cc1 [Ospemifene],45
9,CC(COc1ccccc1)N(CCCl)Cc1ccccc1 (stereo not shown) [Phenoxybenzamine],95
10,CCCCC1C(=O)N(c2ccccc2)N(c2ccccc2)C1=O [Phenylbutazone],90
11,"CN(C)CCCN1c2ccccc2Sc2ccccc21 [Promazine, reference compound]",70

# System: coronaviruses (MERS; SARS-1; SARS-2)
# Assay: not given
# Conditions: cited from earlier work
row,SMILES,CoV Inhibition
1,"CNCCCN1c2ccccc2CCc2ccccc21 [Desipramine, reference compound]",MERS; SARS-1 and MERS
2,"CN(C)CCCN1c2ccccc2Sc2ccccc21 [Promazine, reference compound]",MERS; SARS-1 and MERS
3,C=CCc1ccccc1OCC(O)CNC(C)C (stereo not shown) [alprenolol],MERS
4,CCN(CC)Cc1cc(Nc2ccnc3cc(Cl)ccc23)ccc1O [amodiaquine],SARS-2; and MERS
5,CCN(CC)CCCC(C)Nc1ccnc2cc(Cl)ccc12 (stereo not shown) [chloroquine],MERS
6,CN(C)CCCN1c2ccccc2Sc2ccc(Cl)cc21 [chlorpromazine],SARS-2;
7,CN(C)CCCN1c2ccccc2CCc2ccc(Cl)cc21 [clomipramine],MERS
8,"COc1cc2nc(N3CCN(C(=O)C4COc5ccccc5O4)CC3)nc(N)c2cc1OC (stereo not shown) [doxazosin, reference compound]",MERS; SARS-1
9,OCCN1CCN(CCCN2c3ccccc3Sc3ccc(C(F)(F)F)cc32)CC1 [fluphenazine],SARS-2; and MERS
10,CCN(CCO)CCCC(C)Nc1ccnc2cc(Cl)ccc12 (stereo not shown) [hydroxychloroquine],SARS-2; and MERS
11,"COc1c(C)c2c(c(O)c1C/C=C(\C)CCC(=O)OCCN1CCOCC1)C(=O)OC2 [mycophenolate_mofetil, reference compound]",MERS; SARS-1
12,CC(CN1c2ccccc2Sc2ccccc21)N(C)C (stereo not shown) [promethazine],MERS
13,"CC(C)NCC(O)COc1cccc2ccccc12 (stereo not shown) [propranolol, reference compound]",MERS; SARS-1
14,"CC(C)N1CCN(c2ccc(OCC3COC(Cn4cncn4)(c4ccc(Cl)cc4Cl)O3)cc2)CC1 (stereo not shown) [terconazole, reference compound]",MERS; SARS-1
15,CCSc1ccc2c(c1)N(CCCN1CCN(C)CC1)c1ccccc1S2 [thiethylperazine],SARS-2; and MERS

# System: Vero E6 cells
# Assay: Toxicity: CellTiter-Blue Cell Viability Assay
# Conditions: not given
row,SMILES,TOXICITY Y/N
1,"CNCCCN1c2ccccc2CCc2ccccc21 [Desipramine, reference compound]",Very weak
2,"CN(C)CCCN1c2ccccc2Sc2ccccc21 [Promazine, reference compound]",Very weak
